This passage reports melting point results from US6930104B2, “Heterocyclic derivatives” (Takeda Chemical Industries, Ltd., priority 2001, dated 2005).

Molecule `COc1ccc(C(=O)N2CCC(N3CC4(CCN(Cc5ccccc5)CC4)c4ccccc43)c3ccccc32)cc1OC` (centres unmarked) showed a melting point of 155 to 157 °C.
For `COc1ccc(C(=O)N2c3ccccc3C(N3CCCc4cc(OCc5ccccc5)ccc43)CC2C)cc1OC` (stereo not drawn) (hydrate or solvate) [Example 101, 2,4-cis-4-(6-Benzyloxy-1,2,3,4-tetrahydroquinolin-1-yl)-1-(3,4-dimethoxybenzoyl)-2-methyl-1,2,3,4-tetrahydroquinoline] the value was 164 to 165 °C; for `CCOc1ccc(C(=O)N2c3ccccc3C(N3CCCc4ccccc43)CC2C)cc1OC` (centres unmarked) (hydrate or solvate) [Example 103, 1-(4-Ethoxy-3-methoxybenzoyl)-2-methyl-4-(1,2,3,4-tetrahydroquinolin-1-yl)-1,2,3,4-tetrahydroquinoline], 140 to 142 °C; for `CCOc1ccc(C(=O)N2c3ccccc3C(n3c4ccccc4c4ccccc43)CC2C)cc1OC` (stereo not drawn) (hydrate or solvate) [Example 143, 2,4-cis-4-(9H-9-Carbazolyl)-1-(4-ethoxy-3-methoxybenzoyl)-2-methyl-1,2,3,4-tetrahydroquinoline], 214 to 215 °C.
As for `CCOc1ccc(C(=O)N2c3ccccc3C(n3c4ccccc4c4ccccc43)CC2C)cc1OCC` (stereo not drawn) (hydrate or solvate) [Example 144, 2,4-cis-4-(9H-9-Carbazolyl)-1-(3,4-diethoxybenzoyl)-2-methyl-1,2,3,4-tetrahydroquinoline], the melting point was in the range of 240 to 241 °C.
`CCCC1CC(n2c3ccccc3c3ccccc32)c2ccccc2N1C(=O)c1ccc(OCC)c(OCC)c1` (stereo not drawn) (hydrate or solvate) [Example 147, 2,4-cis-4-(9H-9-Carbazolyl)-1-(3,4-diethoxybenzoyl)-2-propyl-1,2,3,4-tetrahydroquinoline] came in with a melting point of 220 °C.
`COc1ccc(C(=O)N2c3ccccc3C(n3c4ccccc4c4ccccc43)C(O)C2C)cc1OC` (centres unmarked) (hydrate or solvate) [Example 162, 4-(9H-9-Carbazolyl)-1-(3,4-dimethoxybenzoyl)-3-hydroxy-2-methyl-1,2,3,4-tetrahydroquinoline] came in with a melting point of 194 to 195 °C.
Molecule `COc1ccc(C(=O)N2c3ccccc3C(N3CCCc4ccccc43)C(OC(C)=O)C2C)cc1OC` (racemic) [Example 17, 2,3-trans-2,4-cis-3-Acetoxy-1-(3,4-dimethoxybenzoyl)-2-methyl-4-(1,2,3,4-tetrahydroquinolin-1-yl)-1,2,3,4-tetrahydroquinoline] had a melting point of 130 to 131 °C.
For `COc1ccc(C(=O)N2c3ccccc3C(N3CCSc4ccccc43)CC2C)cc1OC` (racemic) [Example 20, 2,4-cis-4-(3,4-Dihydro-2H-1,4-benzothiazin-4-yl)-1-(3,4-dimethoxybenzoyl)-2-methyl-1,2,3,4-tetrahydroquinoline] the value was 178 to 180 °C.
`COc1ccc(C(=O)N2CCC(N3CCc4ccccc43)c3ccccc32)cc1OC` (centres unmarked) [Example 2, 4-(2,3-Dihydro-1H-indol-1-yl)-1-(3,4-dimethoxybenzoyl)-1,2,3,4-tetrahydroquinoline] displayed a melting point of 121 to 123 °C.
On to `CCCCC1CC(n2c3ccccc3c3ccccc32)c2ccccc2N1C(=O)c1ccc(OC)c(OC)c1` (stereo not drawn) [Example 40, 2,4-cis-2-Butyl-4-(9H-9-carbazolyl)-1-(3,4-dimethoxybenzoyl)-1,2,3,4-tetrahydroquinoline], for which the melting point was 213 °C.
For `COc1ccc(C(=O)N2c3ccccc3C(n3c4ccccc4c4ccccc43)CC2CC(C)C)cc1OC` (stereo not drawn) [Example 41, 2,4-cis-4-(9H-9-Carbazolyl)-1-(3,4-dimethoxybenzoyl)-2-isobutyl-1,2,3,4-tetrahydroquinoline] the value was 191 to 193 °C; for `COc1ccc(C(=O)N2c3ccccc3C(n3c4ccccc4c4ccccc43)CC2COCc2ccccc2)cc1OC` (centres unmarked) [Example 43, 2-[(Benzyloxy)methyl]-4-(9H-9-carbazolyl)-1-(3,4-dimethoxybenzoyl)-1,2,3,4-tetrahydroquinoline], 203 to 204 °C; for `CCCCC1C=C(n2c3ccccc3c3ccccc32)c2ccccc2N1C(=O)c1ccc(OC)c(OC)c1` (centres unmarked) [Example 59, 2-Butyl-4-(9H-9-carbazolyl)-1-(3,4-dimethoxybenzoyl)-1,2-dihydroquinoline], 174 to 175 °C.
`COc1ccc(C(=O)N2c3ccccc3C(N3CCc4ccccc43)CC2C)cc1OC` (centres unmarked) [Example 61, 4-(2,3-Dihydro-1H-indol-1-yl)-1-(3,4-dimethoxybenzoyl)-2-methyl-1,2,3,4-tetrahydroquinoline] came in with a melting point of 147 to 148 °C.
For `COc1ccc(C(=O)N2c3ccccc3C(N3CCSc4ccccc43)CC2C)cc1OC` (centres unmarked) [Example 72, 4-[1-(3,4-Dimethoxybenzoyl)-2-methyl-1,2,3,4-tetrahydroquinolin-4-yl]-3,4-dihydro-2H-1,4-benzothiazine], the melting point is 113 to 114 °C.
Turning to `COc1ccc(C(=O)N2c3ccccc3C(N3CCc4ccccc4C3)CC2C)cc1OC` (centres unmarked) [Example 73, 1-(3,4-Dimethoxybenzoyl)-2-methyl-4-(1,2,3,4-tetrahydroisoquinolin-2-yl)-1,2,3,4-tetrahydroquinoline], the melting point was 128 to 129 °C.
Molecule `CCCC1CC(N2CCCc3ccccc32)c2ccccc2N1C(=O)c1ccc(OC)c(OC)c1` (stereo not drawn) [Example 75, 2,4-cis-1-(3,4-Dimethoxybenzoyl)-2-propyl-4-(1,2,3,4-tetrahydroquinolin-1-yl)-1,2,3,4-tetrahydroquinoline] yielded a melting point of 176 to 177 °C.
`CCCCC1C(O)C(N2CCCc3ccccc32)c2ccccc2N1C(=O)c1ccc(OC)c(OC)c1` (stereo not drawn) [Example 76, 2,3-trans-2,4-cis-2-Butyl-1-(3,4-dimethoxybenzoyl)-3-hydroxy-4-(1,2,3,4-tetrahydroquinolin-1-yl)-1,2,3,4-tetrahydroquinoline] registered a melting point of 200 to 202 °C.
For `CCCCC1CC(N2CCCc3ccccc32)c2ccccc2N1C(=O)c1ccc(OC)c(OC)c1` (stereo not drawn) [Example 77, 2,4-cis-2-Butyl-1-(3,4-dimethoxybenzoyl)-4-(1,2,3,4-tetrahydroquinolin-1-yl)-1,2,3,4-tetrahydroquinoline] the value was 159 to 160 °C.
As for `COc1ccc(C(=O)N2c3ccccc3C(N3CCCc4ccc(C)cc43)CC2C)cc1OC` (stereo not drawn) [Example 81, 2,4-cis-1-(3,4-Dimethoxybenzoyl)-2-methyl-4-(7-methyl-1,2,3,4-tetrahydroquinolin-1-yl)-1,2,3,4-tetrahydroquinoline], the melting point is 197 to 198 °C.
With `COc1ccc(C(=O)N2c3ccccc3C(N3CCCc4cc(C)ccc43)CC2C)cc1OC` (stereo not drawn) [Example 83, 2,4-cis-1-(3,4-Dimethoxybenzoyl)-2-methyl-4-(6-methyl-1,2,3,4-tetrahydroquinolin-1-yl)-1,2,3,4-tetrahydroquinoline], the melting point was in the range of 184 to 185 °C.
As for `COc1ccc(C(=O)N2c3ccccc3C(N3CCCc4cc(C(C)C)ccc43)C(O)C2C)cc1OC` (stereo not drawn) [Example 84, 2,3-trans-2,4-cis-1-(3,4-Dimethoxybenzoyl)-3-hydroxy-4-(6-isopropyl-1,2,3,4-tetrahydroquinolin-1-yl)-2-methyl-1,2,3,4-tetrahydroquinoline], the melting point lay in the range of 165 to 166 °C.

In general, melting point refers to the temperature of the solid-liquid transition.
